Read-outs that look alike come from different tables or passages of the source. Blank lines part the entries; values can stand above or below the compound they belong to. Non-standard residues stand in square brackets, D forms with d. Residues, ends and D or L forms follow the SMILES beside them. *: point of attachment. X1 = CC(C)C[C@H](NC[C@H](Cc1ccccc1)N*)C(N)=O; X2 = CC(C)C[C@@H](CN[C@@H](CC(C)C)C(N)=O)N*; Sta = CC(C)C[C@H](N)[C@@H](O)CC(=O)O; pGlu = O=C1CC[C@@H](C(=O)O)N1
Key:
swiss 3T3 cells = swiss 3T3 cells (Mus musculus, UniProt P21729); assay: Bombesin-stimulated [3H]thymidine uptake by cultured 3T3 cells; format: cell-based, murine; conditions: Table 1
Method: Phase 1—3T3 Peptide Stimulated [^3H] Thymidine Uptake Assay
Cell Culture. Stock cultures of swiss 3T3 cells are grown in Dulbecco's Modified Eagles Medium (DMEM) supplemented with 10% fetal calf serum in humidified atmosphere of 10% CO2/90% air at 37° C. For experimental use, the cells are seeded into 24-well cluster trays and used four days after she last change of medium. The cells are arrested in the G1/G0 phase of the cell cycle by changing to serum-free DMEM 24 hours prior to the thymidine uptake assay.
Assay of DNA Synthesis. The cells are washed twice with 1 ml aliquots of DMEM (-serum) then incubated with DMEM (-serum), 0.5 μM [methyl-^3H] thymidine (20 Ci/mmole, New England Nuclear), bombesin (3 nM), and initially four concentrations of the test compounds (1, 10, 100, 1000 nM) in a final volume of 1.0 ml. After 28 hours at 37° C., [methyl-^3H] thymidine incorporation into acid-insoluble pools is assayed as follows. The cells are washed twice with ice-cold 0.9% NaCl (1 ml aliquots), and acid soluble radioactivity is removed by a 30 min. (4° C.) incubation with 5% trichloroacetic acid (TCA). The cultures are then washed once (1 ml) with 95% ethanol and solubilized by a 30 min. incubation (1 ml) with 0.1N NaOH. The solubilized material is transferred to vials containing 10 ml ScintA (Packard), and the radioactivity is determined by liquid scintillation spectrometry.
(§1) A number of analogs of bombesin or GRP, each containing a non-peptide bond or a statine, AHPPA, or ACHPA, β-amino acid, or γ-amino acid residue, can be synthesized and tested in one or more of the above-described Phase 1-7 assays; the results of Phase 1 and 2 tests are given in Table 1 attached hereto. […] (3T3 GRP receptor and thymidine uptake data are expressed in IC50 (nM).) Table 1 also gives results for non-peptide bond-containing analogs of one other naturally-occurring peptide, Neuromedin C, whose C-terminal seven amino acids are similar to those of bombesin and GRP. (In Table 1, “Litorin” indicates a 9 residue peptide analog or its derivative, whereas “Neuromedin C” indicates a 10 residue analog or its derivative.)

[1] = molecular target: T1, 3T3 fibroblast bombesin receptors (3T3 GRP receptor) (Mus musculus, UniProt P21729); assay: In vitro inhibition of [125I]GRP binding to 3T3 fibroblast bombesin receptors; set-up: species or system murine; conditions: for activity in the 3T3 GRP receptor binding assay (in words): Table 1
T1 construct: Membranes from various tissues (rat brain, rat pancreas, rat anterior pituitary, SCLC, 3T3 cells) are prepared by homogenization; endogenous in cells; host or cells: 3T3 fibroblasts (membrane preparation)
Method: Phase 4—In Vitro Inhibition of [^125I] Gastrin Releasing Peptide (GRP) Binding to Bombesin Receptors
Membranes from various tissues (rat brain, rat pancreas, rat anterior pituitary, SCLC, 3T3 cells) are prepared by homogenization in 50 mM TrisHCl containing 0.1% bovine serum albumin and 0.1 mg/ml bacitracin followed by two centrifugations (39,000×g×15 min., 4° C.) with an intermediate resuspension in-fresh buffer. For assay, aliquots […] are incubated with 0.5 nM [^125I]GRP (˜2000 Ci/mmol, Amersham Corp.) and various concentrations of the test compounds in a final volume of 0.5 ml. After a 30 minute incubation at 4° C., the binding reaction is terminated by rapid filtration through Whatman GF/C filters that have been pre-soaked in 0.3% aqueous polethyleneimine to reduce the level of nonspecific binding. The filters and tubes are washed three times with 4 ml aliquots of ice-cold buffer, and the radioactivity trapped on the filters is counted by gamma-spectrometry. Specific binding is defined as the total. [^125I]GRP bound minus that bound in the presence of 1000 nM. bombesin or a related peptide.
as §1

[2] = molecular target: 3T3 fibroblast bombesin receptors (murine (3T3 murine fibroblasts)) (UniProt P21729)
NCI-H69 human SCLC = assay: In vivo antitumor activity, NCI-H69 small cell lung carcinoma xenografts; conditions: for Tumor Size Day 18 (mm) / % Test/Control (Day 18) / % Test/Control (Day 28) / Tumor Size Day 28 (mm): 50 μg/inj., b.i.d., QD1-28; for Tumor Size Day 18 (mm) / Tumor Size Day 28 (mm): mean ± SD
Method: Phase 6—In Vivo Antitumor Activity
NCI-H69 small cell lung carcinoma cells were transplanted from in vitro culture by implanting each animal with the equivalent of 5 confluent 75 cm^2 tissue culture flasks in the right flank. In vitro NCI-H69 cells grow as a suspension of cellular aggregates. Therefore, no attempt was made to disaggregate the cell agglomerates by physical or chemical means. Tumor size was calculated as the average of two diameters, i.e., (length and width/2) mm.
(§2) These observations prompted us to evaluate the effect of BIM-26100 on the in vivo growth of the SCLC tumor cell line described in Phase 6. Twenty athymic nude females, 5 to 6 weeks of age, were implanted on day 0 with the NCI-H69 human SCLC, individually identified and then randomized into the following vehicle control and test groups:
(§3) Growth of NCI-H69 xenografts and the tumor growth inhibitory activity of the bombesin antagonist BIM-26100 (pGlu-Gln-Trp-Ala-Val-Gly-His-Pheψ[CH2NH]Leu-NH2) are illustrated as tumor growth curves in FIG. 1, and relative tumor sizes in Table 2. […] The effectiveness of the antitumor activity of BIM-26100 is evident in view of the large inoculum of NCI-H69 tumor cells (i.e. the equivalent of 5 confluent 75 cm^2 cell culture flasks per animal) and the agglomerated condition of the cells. In confluent flasks, NCI-H69 agglomerates are macroscopically visible and together resemble a metastatic tumor colony. Many such tumor colonies were implanted per animal. The dose of BIM-26100 […] and is not optimal. Higher doses of BIM-26100 may be administered, as indicated by body weight gain (minus tumor weight) gain during the course of treatment (Table 3).

[3] = Body weight (minus tumor weight) during BIM-26100 treatment of tumor-bearing animals; format: in vivo, athymic nude females; conditions: for Body Weight(gm) Day 0 / Body Weight(gm) Day 18 / Body Weight(gm) Day 28: 50 μg/inj., b.i.d., QD1-28, tumor weight subtracted
Source text: as §2, §3

[4] = inhibition of [125I]GRP binding, 3T3 membranes, read-out: 3T3 GRP Receptor IC50

T1 sequence (P21729 whole entry): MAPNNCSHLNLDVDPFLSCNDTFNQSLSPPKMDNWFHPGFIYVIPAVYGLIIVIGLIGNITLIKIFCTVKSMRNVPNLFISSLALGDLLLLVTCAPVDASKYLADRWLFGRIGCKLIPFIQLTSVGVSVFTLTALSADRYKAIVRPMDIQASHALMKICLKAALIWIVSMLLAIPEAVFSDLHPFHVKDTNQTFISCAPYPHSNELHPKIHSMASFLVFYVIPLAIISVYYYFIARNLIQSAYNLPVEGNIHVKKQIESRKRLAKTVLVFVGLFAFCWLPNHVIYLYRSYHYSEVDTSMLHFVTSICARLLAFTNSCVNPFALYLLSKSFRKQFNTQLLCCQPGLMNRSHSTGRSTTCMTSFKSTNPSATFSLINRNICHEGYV
Chain of swiss 3T3 cells (P21729 whole entry): as above

Compound: BIM-26095, pGlu-Gln-Trp-Ala-Val-D-Ala-His-Leuψ[CH2NH]Leu-NH2 (Litorin analog) (peptide)
- bombesin-stimulated [3H]Thymidine uptake, IC50 [2]: 1.21 µM

Compound: BIM-26113, D-Phe-Gln-Trp-Ala-Val-Gly-His-Leuψ[CH2NH]Leu-NH2 (Litorin analog) (peptide)
- bombesin-stimulated [3H]Thymidine uptake, IC50 [2]: 0.009 µM

Compound: BIM-26105, D-Ala-Asn-His-Trp-Ala-Val-D-ALa-His-Leuψ[CH2CH]Leu-NH2 (Neuromedin C analog) (peptide)
- bombesin-stimulated [3H]Thymidine uptake, IC50 [2]: 0.107 µM

Compound: BIM-26107, D-Phe-His-Trp-Ala-Val-Gly-His-Leuψ[CH2NH]Leu-NH2 (Neuromedin C analog) (peptide)
- bombesin-stimulated [3H]Thymidine uptake, IC50 [2]: 0.154 µM

Compound: BIM-26122, D-Phe-Gln-Trp-Ala-Val-Gly-His-Leu-NH2 (Litorin analog) (peptide)
- bombesin-stimulated [3H]Thymidine uptake, IC50 [2]: 0.0286 µM

Compound: BIM-26108, N-Ac-D-Ala-His-Trp-Ala-Val-Gly-His-Leuψ[CH2NH]Leu-NH2 (GRP (19-27) analog) (peptide)
- bombesin-stimulated [3H]Thymidine uptake, IC50 [2]: > 1 µM

Compound: CC(C)C[C@H](NC[C@H](Cc1ccccc1)NC(=O)[C@H](Cc1c[nH]cn1)NC(=O)CNC(=O)[C@@H](NC(=O)[C@H](C)NC(=O)[C@H](Cc1c[nH]c2ccccc12)NC(=O)[C@H](CCC(N)=O)NC(=O)[C@@H]1CCC(=O)N1)C(C)C)C(N)=O [BIM-26100, pGlu-Gln-Trp-Ala-Val-Gly-His-Pheψ[CH2NH]Leu-NH2] ([pGlu]QWAVGH-X1)
- Tumor Size Day 18 (mm) (NCI-H69 human SCLC; s.c. inf. (infused around tumor)): 7.6 ± 1.56 mm
- % Test/Control (Day 18) (NCI-H69 human SCLC; s.c. inf.): 70%
- % Test/Control (Day 28) (NCI-H69 human SCLC; s.c. inf.): 86%
- Tumor Size Day 28 (mm) (NCI-H69 human SCLC; s.c. inf.): 13.7 ± 0.67 mm
- % Test/Control (Day 18) (NCI-H69 human SCLC; s.c.): 93%
- Tumor Size Day 18 (mm) (NCI-H69 human SCLC; s.c.): 10.1 ± 1.47 mm
- % Test/Control (Day 28) (NCI-H69 human SCLC; s.c.): 108%
- Tumor Size Day 28 (mm) (NCI-H69 human SCLC; s.c.): 17.3 ± 1.96 mm
- tumor growth inhibitory activity (in words) (NCI-H69 human SCLC; s.c. infusion around the tumor): significantly inhibited tumor growth
- Body Weight(gm) Day 0 ([3]; s.c. inf.): 17.7 gm
- Body Weight(gm) Day 18 ([3]; s.c. inf.): 20.4 gm
- Body Weight(gm) Day 28 ([3]; s.c. inf.): 21.1 gm
- Body Weight(gm) Day 0 ([3]; s.c.): 16.9 gm
- Body Weight(gm) Day 18 ([3]; s.c.): 19.2 gm
- Body Weight(gm) Day 28 ([3]; s.c.): 19.1 gm
- local or systemic toxicity (in words) ([3]; judged from body weight gain during treatment): completely lacks local or systemic toxicity
- activity in the 3T3 GRP receptor binding assay (in words) [1]: most active

Compound: CC(C)C[C@@H](CN[C@@H](CC(C)C)C(N)=O)NC(=O)[C@H](Cc1c[nH]cn1)NC(=O)CNC(=O)[C@@H](NC(=O)[C@H](C)NC(=O)[C@H](Cc1c[nH]c2ccccc12)NC(=O)[C@H](CCC(N)=O)NC(=O)[C@H](N)Cc1ccccc1)C(C)C [BIM-26113, D-Phe-Gln-Trp-Ala-Val-Gly-His-Leuψ[CH2NH]Leu-NH2]
- IC50 [1]: 0.0058 µM
- activity in the 3T3 GRP receptor binding assay (in words) [1]: active

Compound: CC(C)C[C@@H](CN[C@@H](CC(C)C)C(N)=O)NC(=O)[C@H](Cc1c[nH]cn1)NC(=O)CNC(=O)[C@@H](NC(=O)[C@H](C)NC(=O)[C@H](Cc1c[nH]c2ccccc12)NC(=O)[C@H](CCC(N)=O)NC(=O)[C@@H]1CCC(=O)N1)C(C)C [BIM-26101, pGlu-Gln-Trp-Ala-Val-Gly-His-Leuψ[CH2NH]Leu-NH2] ([pGlu]QWAVGH-X2)
- activity in the 3T3 GRP receptor binding assay (in words) [1]: most active

Compound: BIM-26106, desGly-D-Ala-His-Trp-Ala-Val-D-ALa-His-Leuψ[CH2CH]Leu-NH2 (Neuromedin C analog) (peptide)
- bombesin-stimulated [3H]Thymidine uptake, IC50 [2]: 0.354 µM

Now from value to compound:

- activity in the 3T3 thymidine uptake assay (in words) (swiss 3T3 cells): potent antagonists
Compound: CC(C)C[C@H](NC(=O)[C@H](Cc1c[nH]cn1)NC(=O)CNC(=O)[C@@H](NC(=O)[C@H](C)NC(=O)[C@H](Cc1c[nH]c2ccccc12)NC(=O)[C@H](CCC(N)=O)NC(=O)[C@@H]1CCC(=O)N1)C(C)C)[C@@H](O)CC(N)=O [BIM-26120, pGlu-Gln-Trp-Ala-Val-Gly-His-Sta-NH2] ([pGlu]QWAVGH[Sta]-NH2)

- IC50 [1, 4]: 0.841 µM
- activity in the 3T3 thymidine uptake assay (in words) (swiss 3T3 cells): negative results
Compound: CC(=O)N[C@H](C)C(=O)N[C@@H](Cc1c[nH]cn1)C(=O)N[C@@H](Cc1c[nH]c2ccccc12)C(=O)N[C@@H](C)C(=O)N[C@H](C(=O)NCC(=O)N[C@@H](Cc1c[nH]cn1)C(=O)N[C@H](CN[C@@H](CC(C)C)C(N)=O)CC(C)C)C(C)C [BIM-26108, N-Ac-D-Ala-His-Trp-Ala-Val-Gly-His-Leuψ[CH2NH]Leu-NH2] (Ac-[dA]HWAVGH-X2)

- activity in the 3T3 GRP receptor binding assay (in words) [1]: antagonists
- IC50 [1, 4]: 0.199 µM
- activity in the 3T3 thymidine uptake assay (in words) (swiss 3T3 cells): antagonists
Compound: CC(C)C[C@@H](CN[C@@H](CC(C)C)C(N)=O)NC(=O)[C@H](Cc1c[nH]cn1)NC(=O)CNC(=O)[C@@H](NC(=O)[C@H](C)NC(=O)[C@H](Cc1c[nH]c2ccccc12)NC(=O)[C@H](Cc1c[nH]cn1)NC(=O)[C@H](N)Cc1ccccc1)C(C)C [BIM-26107, D-Phe-His-Trp-Ala-Val-Gly-His-Leuψ[CH2NH]Leu-NH2] (H-[dF]HWAVGH-X2)

- IC50 [1, 4]: 2.62 µM
Compound: CC(C)C[C@@H](CN[C@@H](CC(C)C)C(N)=O)NC(=O)[C@H](Cc1c[nH]cn1)NC(=O)[C@@H](C)NC(=O)[C@@H](NC(=O)[C@H](C)NC(=O)[C@H](Cc1c[nH]c2ccccc12)NC(=O)[C@H](CCC(N)=O)NC(=O)[C@@H]1CCC(=O)N1)C(C)C [BIM-26095, pGlu-Gln-Trp-Ala-Val-D-Ala-His-Leuψ[CH2NH]Leu-NH2] ([pGlu]QWAV[dA]H-X2)

From patent publication US20050026827A1, “Octapeptide bombesin analogs” (Societe de Conseils de Recherches et d'Applications …, priority 1987, published 2005)
